In patent US20210071180A1, “MICRORNA 584-5P COMPOSITIONS AND METHODS FOR TREATING CANCER” (BOARD OF REGENTS, THE UNIVERSY OF TEXAS SYSTEM, priority 2018, published 2021) one finds c-Myc levels and PGC-1α expression data, which are given here for one substance.

The test system of one data set is c-Myc. Briefly: qPCR and Western blot of c-Myc. In kind it is cell-based. The settings on record: c-Myc-amplified MB cells. On the procedure: Immunofluorescence and Western blot analysis Immunofluorescence analyses was carried out on cells fixed in 4% paraformaldehyde (Imam, J. S. et al. PLoS One 7, e52397, (2012)). […]
Because c-Myc supports cancer stem cell growth, promotes radioresistance (Gravina, G. L. et al. Radiat Res 185, 411-422, (2016)), and has elevated levels in VCR-resistant cancer cells (He, Y., Zhang, J., Zhang, J. & Yuan, Y. Chin Med J (Engl) 113, 848-851 (2000)), it was tested whether miR-584-5p and its target genes may regulate c-Myc-amplified MB growth and therapy sensitization by targeting c-Myc levels/functions. […] In FIG. 14D, the p-values were calculated using standard Student t-tests. […] To test that possibility, it was assessed whether miR-584-5p target genes may regulate c-Myc levels in MB. […] Cell viability was assessed using alamarBlue. The p-value was calculated using one-way ANOVA followed by Sidak's multiple-comparisons test. […]

For another data set, the system named is PGC-1α. Briefly: qRT-PCR of PGC-1α expression. In kind it is cell-based. The settings on record: miR-584-5p-treated MB cells. An excerpt:
One such gene is peroxisome proliferator-activated receptor gamma coactivator 1-α, which codes for PGC-1α protein, which HDAC1 inhibits in brown adipocytes (Li, F. et al. J Biol Chem 291, 4523-4536, (2016)). The results disclosed herein reveal that PGC-1α expression is increased in miR-584-5p-treated MB cells (FIG. 10). […] The data in FIG. 10 represent Log 2 ratio tumor/cerebellum control. Data mined from GSE28245. ***, p<0.001; ** , p<0.01; * , p<0.05.
VCR disrupts the integrity of the mitotic spindle and destabilizes microtubules (George, P., Journey, L. J. & Goldstein, M. N. J Natl Cancer Inst 35, 355-375 (1965)). Therefore, it was tested whether miR-584-5p and its target genes might affect microtubule dynamics. First, expression of tubulins was deteremined because VCR resistance has been associated with altered expression of tubulin isotypes (Sirotnak, F. M., Danenberg, K. D., Chen, J., Fritz, F. & Danenberg, P. V. Biochem Biophys Res Commun 269, 21-24, (2000)). […] In FIG. 12A, the p-values were calculated using standard Student t-tests. Error bars represent mean±SEM. ****, p<0.0001. […] The p-values were calculated using standard Student t-tests. Error bars represent mean±SEM. […] In FIG. 11F, the p-values were calculated using standard Student t-tests. […] In FIG. 11H, The p-values were calculated using standard Student t-tests. […] Quantitative real-time PCR. […]
(In general: Quantitative PCR measures a nucleic acid by following its amplification.)

For the substance “miR-584-5p: microRNA mimic; nucleotide sequence UUAUGGUUUGCCUGGGACUGAG (SEQ ID NO: 1); purchased from Thermofisher (chemistry not given here)”, the c-Myc levels entry in the data set with c-Myc was “significantly reduced expression of c-Myc”. Further, the PGC-1α expression result with PGC-1α is “increased”.
